≈ marks a conversion by molar mass, not a printed value. Structures can show the parent of a compound that is named as a salt.
Experiments:
Staph. aureus HH 127 = test: minimum inhibitory concentration, in vitro screen (Table I, strain 1); type: cell-based; settings: Staphylococcus aureus, HH127; Staph. aureus HH 127, lactamase producer
Description: (§1) The compounds of this invention are useful as broad spectrum antibacterial agents against both Gram-positive and Gram-negative organisms. […] Data for 7-[syn-2-methoxyimino-2-(2-amino-4-thiazolyl)acetamido]cephalosporanic acid (cefatoxime) are also included for comparison.

Staph. aureus 671 = test: minimum inhibitory concentration, in vitro screen (Table I, strain 2); type: cell-based; settings: Staphylococcus aureus; Staph. aureus 671, lactamase producer
Description: as §1

Staph. aureus 674 = test: minimum inhibitory concentration, in vitro screen (Table I, strain 3); type: cell-based; settings: Staphylococcus aureus
Description: as §1

Strep. faecalis HH 34358 = test: minimum inhibitory concentration, in vitro screen (Table I, strain 4); type: cell-based; settings: Enterococcus faecalis, HH34358
Description: as §1

E. coli SK&F 12140 = test: minimum inhibitory concentration, in vitro screen (Table I, strain 5); type: cell-based; settings: Escherichia coli
Description: as §1

E. coli 804 = test: minimum inhibitory concentration, in vitro screen (Table I, strain 6); type: cell-based; settings: Escherichia coli; E. coli 804, lactamase producer
Description: as §1

[1] = tested on: Kleb. pneumoniae SK&F 4200; test: minimum inhibitory concentration, in vitro screen (Table I, strain 7); type: cell-based; settings: Klebsiella pneumoniae
Description: as §1

[2] = tested on: Kleb. pneumoniae SK&F 1200; test: minimum inhibitory concentration, in vitro screen (Table I, strain 8); type: cell-based; settings: Klebsiella pneumoniae
Description: as §1

Kleb. pneumoniae 982 = test: minimum inhibitory concentration, in vitro screen (Table I, strain 9); type: cell-based; settings: Klebsiella pneumoniae; Kleb. pneumoniae 982, lactamase producer
Description: as §1

P. mirabilis PM-444 = test: minimum inhibitory concentration, in vitro screen (Table I, strain 10); type: cell-based; settings: Proteus mirabilis, PM444
Description: as §1

Pseudo. aeruginosa HH 63 = test: minimum inhibitory concentration, in vitro screen (Table I, strain 11); type: cell-based; settings: Pseudomonas aeruginosa, HH63
Description: as §1

[3] = tested on: Serratia marcescens ATCC 13880; test: minimum inhibitory concentration, in vitro screen (Table I, strain 12); type: cell-based; settings: ATCC13880
Description: as §1

Proteus morgani 179 = test: minimum inhibitory concentration, in vitro screen (Table I, strain 13); type: cell-based
Description: as §1

[4] = tested on: Enterobacter aerogenes ATCC 13048; test: minimum inhibitory concentration, in vitro screen (Table I, strain 14); type: cell-based; settings: Klebsiella aerogenes, ATCC13048
Description: as §1

Enterobacter cloacae 921 = test: minimum inhibitory concentration, in vitro screen (Table I, strain 15); type: cell-based
Description: as §1

Pseudo. aeruginosa 647 = test: minimum inhibitory concentration, in vitro screen (Table I, strain 16); type: cell-based; settings: Pseudomonas aeruginosa
Description: as §1

E. coli 12140 = test: standard in vivo antibacterial test in mice, ED50 (Table 2); settings: Escherichia coli
Description: (§2) Table 2 sets forth ED50 's for Compound A, cefamandole and cefatoxime.

S. aureus HH 127 = test: as above; settings: Staphylococcus aureus
Description: as §2

[5] = pharmacokinetics in mouse (Table 3); type: in vivo; settings: for half-life: in vivo; for half-life / concentration at 2 h / Cmax / dose excreted: mouse, 20 mg/kg; for concentration at 2 h / Cmax: serum; for concentration at 2 h: read-out: Serum Level at 2 hrs.; for Cmax: read-out: Peak Serum Level; for dose excreted: urine, read-out: Urinary Recovery
in vitro = in vitro ADME; settings: human serum proteins; read-out: Binding to Human Serum Proteins (converted)
[6] = tested on: Gram-negative bacteria including those which are β-lactamase producers; test: standard in vitro screens (general statement); type: cell-based; settings: especially against Gram-negative bacteria including β-lactamase producers
Description: as §1

bacterial infections = test: standard in vivo tests in mice (general statement)
Description: as §2

Row | SMILES | MIC (Staph. aureus HH 127) [µg/mL] | MIC (Staph. aureus 671) [µg/mL] | MIC (Staph. aureus 674) [µg/mL] | MIC (Strep. faecalis HH 34358) [µg/mL] | MIC (E. coli SK&F 12140) [µg/mL] | MIC (E. coli 804) [µg/mL] | MIC [1] [µg/mL] | MIC [2] [µg/mL] | MIC (Kleb. pneumoniae 982) [µg/mL] | MIC (P. mirabilis PM-444) [µg/mL] | MIC (Pseudo. aeruginosa HH 63) [µg/mL] | MIC [3] [µg/mL] | MIC (Proteus morgani 179) [µg/mL] | MIC [4] [µg/mL] | MIC (Enterobacter cloacae 921) [µg/mL] | MIC (Pseudo. aeruginosa 647) [µg/mL] | half-life [5] [min] | concentration at 2 h [5] [ng/mL] | Cmax [5] [ng/mL] | dose excreted [5] [%] | further results
1 | Cn1nnnc1SCC1=C(C(=O)O)N2C(=O)[C@@H](NC(=O)[C@H](O)c3ccccc3)[C@H]2SC1 [Cefamandole] | 1.6 (≈ 3.46 µM) | 6.3 (≈ 13.6 µM) | ≤ 0.1 | 25 (≈ 54.1 µM) | 0.8 (≈ 1.73 µM) | > 100 | 1.6 (≈ 3.46 µM) | 0.4 (≈ 0.865 µM) | > 100 | 0.4 (≈ 0.865 µM) | > 100 | 12.5 (≈ 27 µM) | 1.6 (≈ 3.46 µM) | 1.6 (≈ 3.46 µM) | 3.1 (≈ 6.7 µM) | > 100 | 12 | 1000 | 34000 | 45 | ED50 (E. coli 12140; * representative value): 0.9 mg/kg; ED50 (S. aureus HH 127; HH127, * representative value): 2.2 mg/kg; fraction unbound (in vitro): 0.39
2 | CO/N=C(\C(=O)N[C@@H]1C(=O)N2C(C(=O)O)=C(COC(C)=O)CS[C@H]12)c1csc(N)n1 [Cefatoxime, 7-[syn-2-methoxyimino-2-(2-amino-4-thiazolyl)acetamido]cephalosporanic acid] | 1.6 (≈ 3.51 µM) | 0.4 (≈ 0.878 µM) | 0.8 (≈ 1.76 µM) | > 100 | ≤ 0.1 | 0.2 (≈ 0.439 µM) | ≤ 0.1 | ≤ 0.1 | 0.2 (≈ 0.439 µM) | ≤ 0.1 | 6.3 (≈ 13.8 µM) | ≤ 0.1 | ≤ 0.1 | ≤ 0.1 | ≤ 0.1 | 3.1 (≈ 6.81 µM) | 27 | < 1000 | 25000 | 13 | ED50 (E. coli 12140): < 0.2 mg/kg; ED50 (S. aureus HH 127; HH127): 10.5 mg/kg; fraction unbound (in vitro): 0.61
3 | CO/N=C(\C(=O)N[C@@H]1C(=O)N2C(C(=O)O)=C(CSc3nnnn3CCNS(=O)(=O)O)CS[C@H]12)c1csc(N)n1 [Compound A, 7-[syn-2-methoxyimino-2-(2-amino-4-thiazolyl)acetamido]-3-[1-(2-sulfaminoethyl)tetrazo-5-ylthiomethyl]-3-cephem-4-carboxylic acid disodium salt] | 6.3 | 3.1 | 6.3 | > 100 | ≤ 0.1 | 0.4 | ≤ 0.1 | ≤ 0.1 | 1.6 | ≤ 0.1 | 12.5 | ≤ 0.1 | ≤ 0.1 | 0.2 | 0.2 | 6.3 | 114 | 52000 | 78000 | 24 | ED50 (E. coli 12140): 0.4 mg/kg; ED50 (S. aureus HH 127; HH127): 21 mg/kg; peak serum levels, serum levels at two hours and half-life ([5]; compared to cefatoxime and cefamandole): better for Compound A compared to cefatoxime and cefamandole; pharmacokinetic properties ([5]; general statement): unexpected improved pharmacokinetic properties; fraction unbound (in vitro): 0.3; activity in standard in vitro screens [6]: high activity; antibacterial activity in standard in vivo tests (bacterial infections): high antibacterial activity
